Patent publication US12678503B2, “Water-activated mucoadhesive compositions and methods of delivering biologically active substances” (The Brigham and Women's Hospital, Inc., priority 2019, dated 2026)

How the values were obtained:
[1] = Aluminum release in simulated GI fluids; assay type: physicochemical; details: simulated gastric fluid (SGF, pH 1.0)
[2] = Film thickness of hydrated paste on mucus-coated cellulose nitrate membrane; assay type: physicochemical
Procedure: Five hundred milligrams of AF-LuCI (excess) was added onto mucus-coated cellulose nitrate membrane (disk shape with 2 cm diameter) and DDW (pH 5.5), SGF (pH 1.0), or SIF (pH 6.5) was added immediately. After AF-LuCI becomes a paste and flow to form a layer (3-5 minutes), supernatant was removed and the paste-coated membrane was quickly frozen in −80° C. freezer to measure the thickness. The thickness of the mucus-coated cellulose nitrate membrane without AF-LuCI was separately measured as a baseline.

[3] = Integrative barrier property test, glucose permeation in Franz-cell system
Procedure: To examine the barrier properties of pastes formed from the new hydratable compositions in vitro, a mucin-coated membrane was prepared to mimic the mucus surface of the intestine. Specifically, a cellulose nitrate membrane (pore size: 0.2 μm, Whatman, Germany) was incubated in a 3% w/v porcine stomach mucin (Sigma Aldrich, USA) solution in PBS (pH 7.4) and gently shaken for 2 hours at room temperature. The membrane was washed with distilled deionized water (DDW, pH 5.5) to remove the excess mucin solution. The mucin-coated membranes were used within 1 hour following preparation.
To measure the thickness of the mucin layer, the mucin-coated membrane was lyophilized and imaged using scanning electron microscope (SEM) and the thickness of randomly selected positions was examined (average mucin layer thickness: ~100 μm). To test the nutrient barrier properties, 10 mg of sucralfate or AF-LuCI was added evenly to a mucin-coated membrane and vertically tilted for 1 minute. […]
The permeation tests were performed in triplicate for each material. The glucose concentration was measured using high performance liquid chromatography (HPLC, Agilent, USA) with an analytical C18 column (Zorbax Eclipse XDB-C18, Agilent). […]

[4] = Degree of polymerization of PAC by titration; assay type: physicochemical; details: native sucralfate
Procedure: Experiments were performed to determine the degree of polymerization in AF-LuCI by using the titration-based methods as described in Nail, S. L., White, J. L. & Hem, S. L. Structure of Aluminum Hydroxide Gel I. Initial Precipitate. Journal of Pharmaceutical Sciences 65, 1188-1191 (1976); and Hem, J. D. & Roberson, C. E. Form and stability of aluminum hydroxide complexes in dilute solution. Geol Surv Water-Supply Pap (US); (United States) (1967). The degree of polymerization of PACs in AF-LuCI and sucralfate molecule was determined using titration method based on the reversible protonation of hydroxo linkages in the PAC backbone. Approximately 10 mg of AF-LuCI were treated with 0.1N, 0.2N, 0.3N, 0.4N and 0.5N HCl solutions in different tubes. The samples were vortexed for 5 seconds followed by 1-hour incubation. The supernatant of each sample was then collected and the pH was measured using a pH meter. The same procedures were performed with sucralfate. The pH of the HCl solutions was measured as the control group and the difference between the control and the treated groups was calculated. The difference in pH corresponds to the proton consumption and the amount of hydroxo linkages that were then used to calculate the number of aluminum per molecule.

[5] = Dissolution in NaCl solutions; assay type: physicochemical; details: saturated NaCl solutions (~0.35 g/ml in water)
Excerpt: […] This is a characteristic behavior of liquid complex coacervate system (See Wang, Q. & Schlenoff, J. B. The Polyelectrolyte Complex/Coacervate Continuum. Macromolecules 47, 3108-3116 (2014); de Kruif, C. G., Weinbreck, F. & de Vries, R. Complex coacervation of proteins and anionic polysaccharides. Current Opinion in Colloid & Interface Science 9, 340-349 (2004); Veis, A. & Aranyi, C. PHASE SEPARATION IN POLYELECTROLYTE SYSTEMS. I. COMPLEX COACERVATES OF GELATIN. J. Phys. Chem. 64, 1203-1210 (1960)).

[6] = system: Sprague-Dawley (SD) rats; assay: microCT imaging of coating in the GI tract; assay type: in vivo, rat; details: gavaged to SD rats
Procedure: Sprague-Dawley (SD) rats were gavaged into the stomach with hydrated AF-LuCI pastes and imaged using micro-computed tomography (microCT). AF-LuCI pastes could be visualized on gastro-intestinal tissues without additional contrast agents owing to the presence of aluminum. For these experiments, rats were fasted overnight and gavaged directly into the stomach with 450 mg/kg rat of AF-LuCI paste hydrated in 0.9 w/v % normal saline solution. After 1 hr and 5 hr, the rats were anesthetized using isoflurane and imaged using microCT. […] FIG. 18A is a coronal plane view of SD rats gavaged with AF-LuCI 1 hr before the imaging. AF-LuCI formed a layer in stomach, duodenum and proximal intestine. FIGS. 18B and 18C are 3-dimentional views of SD rats gavaged with AF-LuCI (FIG. 18B) 1 hr and (FIG. 18C) 5 hr before the microCT imaging. AF-LuCI is attached on stomach, duodenum and proximal intestine at least for 5 hrs after gavage while sucralfate only formed sparsely scattered aggregates on the healthy mucosa

[7] = system: SD rats; assay: OGTT with different viscosity, dose and dosing schedule (Example 12); assay type: in vivo, rat; details: normal SD rats
Procedure: Experiments were then performed to assess if the AF-LuCI coating could lower glucose response. To evaluate the in vivo effect of the barrier coating from AF-LuCI on postprandial glucose response, SD rats were pre-gavaged with the AF-LuCI pastes and standard OGTT was performed. AF-LuCI at different dosage but also different viscosity. It was hypothesized that low viscosity product may lead to barrier formation in larger area and earlier duodenal coating (onset of action). For these studies, rats were fasted overnight and gavaged with AF-LuCI pastes (dose: 450-2,700 mg/kg rat; viscosity: high and low), or saline as a control. One or three hours later, glucose solution (2 g/kg rat) was gavaged and changes in serum glucose levels measured every 30 minutes over the subsequent 120 min (n=4 per arm). Tail vein blood was used to measure glucose levels using glucometer. […] The time gap between AF-LuCI administration and glucose gavage also affects the reduction of blood glucose responses differently depending on the AF-LuCI formulations (FIG. 19C). 3 hr after treatment with 450 mg/kg rat lower viscosity AF-LuCI (i.e. 5 Pa·s), the reduction in glucose response decreased to 7%. In FIG. 19, AF-LuCI fabricated using 0.4N, 0.5N, and 0.6N HCl solution and rehydrated in 0.9 w/v % normal saline is denoted as “Viscosity High”, “Viscosity Mid”, and “Viscosity Low”, respectively.

[8] = cited from earlier work

sucralfate
release of aluminum [1]: 15 w/w % of total aluminum content | layer formation ([2]; distilled water or SIF): did not form any layer | thickness of layer ([2]; only in SGF (pH 1.0)): ~ 250 μm | glucose penetration blocked ([3]; SGF, 10 mg on mucin-coated membrane, 120 g/L glucose, 5 minutes): ~ 60% | glucose blocked ([3]; applied on mucus-coated membrane in pH 1.0, then pH 4.0): 16.5% | number of aluminum ions per molecule [4]: 56.1±3.0 aluminum per molecule | amount dissolved [5]: Less than 5 w/w % | layer formation in the GI tract (microCT) [6]: did not form a layer | area under curve (AUC) in OGTT vs saline treated group [7]: no significant difference | aluminum content of sucralfate (USP regulation) [8]: 15.5-18.5 w/w % of the total weight
